Assay results from the supplement of paper PMC13380429.

Columns and labels:
Conditions in all cases: 72 h
Vero E6 [1] = experiment: cell viability relative to DMSO; higher = less toxic
Calu-3 [2] = experiment: as above
Caco-2 [3] = experiment: as above
U2OS [4] = experiment: as above
Vero E6 [5] = experiment: drug sensitivity score (DSS) for viability; higher = more toxic; extreme values may be limits of the assay
Calu-3 [6] = experiment: as above
Caco-2 [7] = experiment: as above
U2OS [8] = experiment: as above
Vero E6 [9] = experiment: relative viability EC50 (midpoint between 100% and the lowest measured viability); higher = less toxic
Calu-3 [10] = experiment: as above
Caco-2 [11] = experiment: as above
U2OS [12] = experiment: as above
HepG2 [13] = experiment: cell viability relative to DMSO; higher = less toxic
HepG2 [14] = experiment: drug sensitivity score (DSS) for viability; higher = more toxic; extreme values may be limits of the assay
HepG2 [15] = experiment: relative viability EC50 (midpoint between 100% and the lowest measured viability); higher = less toxic

NCCS [cysteamine]
cell viability (Vero E6 [1]; 1 nM): 106%
cell viability (Vero E6 [1]; 10 nM): 101%
cell viability (Vero E6 [1]; 100 nM): 99.8%
cell viability (Vero E6 [1]; 1000 nM): 94.8%
cell viability (Vero E6 [1]; 10000 nM): 99.9%
cell viability (Calu-3 [2]; 1 nM): 87.7%
cell viability (Calu-3 [2]; 10 nM): 100%
cell viability (Calu-3 [2]; 100 nM): 98.3%
cell viability (Calu-3 [2]; 1000 nM): 99.1%
cell viability (Calu-3 [2]; 10000 nM): 102%
cell viability (Caco-2 [3]; 1 nM): 102%
cell viability (Caco-2 [3]; 10 nM): 108%
cell viability (Caco-2 [3]; 100 nM): 104%
cell viability (Caco-2 [3]; 1000 nM): 100%
cell viability (Caco-2 [3]; 10000 nM): 93.8%
cell viability (U2OS [4]; 1 nM): 102%
cell viability (U2OS [4]; 10 nM): 102%
cell viability (U2OS [4]; 100 nM): 95.1%
cell viability (U2OS [4]; 1000 nM): 99.7%
cell viability (U2OS [4]; 10000 nM): 97.4%
drug sensitivity score (Vero E6 [5]): 0
drug sensitivity score (Calu-3 [6]): 0
drug sensitivity score (Caco-2 [7]): 0
drug sensitivity score (U2OS [8]): 0
relative viability EC50 (Vero E6 [9]): > 10 µM
relative viability EC50 (Calu-3 [10]): > 10 µM
relative viability EC50 (Caco-2 [11]): > 10 µM
relative viability EC50 (U2OS [12]): > 10 µM

Nc1ncnc2c1ncn2[C@H]1CC[C@@H](CO)O1 [dideoxyadenosine]
cell viability (Vero E6 [1]; 1 nM): 101%
cell viability (Vero E6 [1]; 10 nM): 98%
cell viability (Vero E6 [1]; 100 nM): 99.3%
cell viability (Vero E6 [1]; 1000 nM): 106%
cell viability (Vero E6 [1]; 10000 nM): 102%
cell viability (Calu-3 [2]; 1 nM): 98.8%
cell viability (Calu-3 [2]; 10 nM): 95.4%
cell viability (Calu-3 [2]; 100 nM): 89.1%
cell viability (Calu-3 [2]; 1000 nM): 107%
cell viability (Calu-3 [2]; 10000 nM): 108%
cell viability (Caco-2 [3]; 1 nM): 98.6%
cell viability (Caco-2 [3]; 10 nM): 95.3%
cell viability (Caco-2 [3]; 100 nM): 94.6%
cell viability (Caco-2 [3]; 1000 nM): 94.6%
cell viability (Caco-2 [3]; 10000 nM): 104%
cell viability (U2OS [4]; 1 nM): 96.3%
cell viability (U2OS [4]; 10 nM): 100%
cell viability (U2OS [4]; 100 nM): 93.7%
cell viability (U2OS [4]; 1000 nM): 99.3%
cell viability (U2OS [4]; 10000 nM): 102%
drug sensitivity score (Vero E6 [5]): 0
drug sensitivity score (Calu-3 [6]): 0
drug sensitivity score (Caco-2 [7]): 0
drug sensitivity score (U2OS [8]): 0
relative viability EC50 (Vero E6 [9]): > 10 µM
relative viability EC50 (Calu-3 [10]): > 10 µM
relative viability EC50 (Caco-2 [11]): > 10 µM
relative viability EC50 (U2OS [12]): > 10 µM

O=C1CN(/N=C/c2ccc([N+](=O)[O-])o2)C(=O)N1 [nitrofurantoin]
cell viability (Vero E6 [1]; 1 nM): 92.4%
cell viability (Vero E6 [1]; 10 nM): 95.1%
cell viability (Vero E6 [1]; 100 nM): 98.4%
cell viability (Vero E6 [1]; 1000 nM): 96.7%
cell viability (Vero E6 [1]; 10000 nM): 97.4%
cell viability (Calu-3 [2]; 1 nM): 106%
cell viability (Calu-3 [2]; 10 nM): 111%
cell viability (Calu-3 [2]; 100 nM): 97.6%
cell viability (Calu-3 [2]; 1000 nM): 94.3%
cell viability (Calu-3 [2]; 10000 nM): 102%
cell viability (HepG2 [13]; 1 nM): 98.4%
cell viability (HepG2 [13]; 10 nM): 111%
cell viability (HepG2 [13]; 100 nM): 113%
cell viability (HepG2 [13]; 1000 nM): 109%
cell viability (HepG2 [13]; 10000 nM): 60%
cell viability (Caco-2 [3]; 1 nM): 101%
cell viability (Caco-2 [3]; 10 nM): 101%
cell viability (Caco-2 [3]; 100 nM): 95.8%
cell viability (Caco-2 [3]; 1000 nM): 89.9%
cell viability (Caco-2 [3]; 10000 nM): 103%
cell viability (U2OS [4]; 1 nM): 104%
cell viability (U2OS [4]; 10 nM): 97.9%
cell viability (U2OS [4]; 100 nM): 101%
cell viability (U2OS [4]; 1000 nM): 101%
cell viability (U2OS [4]; 10000 nM): 103%
drug sensitivity score (Vero E6 [5]): 0
drug sensitivity score (Calu-3 [6]): 0
drug sensitivity score (HepG2 [14]): 1.5
drug sensitivity score (Caco-2 [7]): 0
drug sensitivity score (U2OS [8]): 0
relative viability EC50 (Vero E6 [9]): > 10 µM
relative viability EC50 (Calu-3 [10]): > 10 µM
relative viability EC50 (Caco-2 [11]): > 10 µM
relative viability EC50 (U2OS [12]): > 10 µM

CCc1nc(N)nc(N)c1-c1ccc(Cl)cc1 [pyrimethamine]
cell viability (Vero E6 [1]; 1 nM): 96.3%
cell viability (Vero E6 [1]; 10 nM): 93%
cell viability (Vero E6 [1]; 100 nM): 103%
cell viability (Vero E6 [1]; 1000 nM): 99.9%
cell viability (Vero E6 [1]; 10000 nM): 60.7%
cell viability (Calu-3 [2]; 1 nM): 101%
cell viability (Calu-3 [2]; 10 nM): 111%
cell viability (Calu-3 [2]; 100 nM): 101%
cell viability (Calu-3 [2]; 1000 nM): 99%
cell viability (Calu-3 [2]; 10000 nM): 107%
cell viability (HepG2 [13]; 1 nM): 108%
cell viability (HepG2 [13]; 10 nM): 91.5%
cell viability (HepG2 [13]; 100 nM): 102%
cell viability (HepG2 [13]; 1000 nM): 93.2%
cell viability (HepG2 [13]; 10000 nM): 77.9%
cell viability (U2OS [4]; 1 nM): 100%
cell viability (U2OS [4]; 10 nM): 108%
cell viability (U2OS [4]; 100 nM): 99.8%
cell viability (U2OS [4]; 1000 nM): 102%
cell viability (U2OS [4]; 10000 nM): 96.8%
drug sensitivity score (Vero E6 [5]): 2
drug sensitivity score (Calu-3 [6]): 0
drug sensitivity score (HepG2 [14]): 1.6
drug sensitivity score (U2OS [8]): 0
relative viability EC50 (Calu-3 [10]): > 10 µM
relative viability EC50 (HepG2 [15]): > 10 µM
relative viability EC50 (U2OS [12]): > 10 µM

C=C[C@](C)(O)CC[C@@H]1[C@@]2(C)CCCC(C)(C)[C@@H]2CC[C@@]1(C)O [sclareol]
cell viability (Vero E6 [1]; 1 nM): 101%
cell viability (Vero E6 [1]; 10 nM): 100%
cell viability (Vero E6 [1]; 100 nM): 102%
cell viability (Vero E6 [1]; 1000 nM): 99.6%
cell viability (Vero E6 [1]; 10000 nM): 104%
cell viability (Calu-3 [2]; 1 nM): 101%
cell viability (Calu-3 [2]; 10 nM): 98.7%
cell viability (Calu-3 [2]; 100 nM): 98.7%
cell viability (Calu-3 [2]; 1000 nM): 104%
cell viability (Calu-3 [2]; 10000 nM): 94.4%
cell viability (Caco-2 [3]; 1 nM): 101%
cell viability (Caco-2 [3]; 10 nM): 98.8%
cell viability (Caco-2 [3]; 100 nM): 99.7%
cell viability (Caco-2 [3]; 1000 nM): 102%
cell viability (Caco-2 [3]; 10000 nM): 87.6%
cell viability (U2OS [4]; 1 nM): 107%
cell viability (U2OS [4]; 10 nM): 96.6%
cell viability (U2OS [4]; 100 nM): 96.4%
cell viability (U2OS [4]; 1000 nM): 98.8%
cell viability (U2OS [4]; 10000 nM): 94.6%
drug sensitivity score (Vero E6 [5]): 0
drug sensitivity score (Calu-3 [6]): 0
drug sensitivity score (Caco-2 [7]): 0
drug sensitivity score (U2OS [8]): 0
relative viability EC50 (Vero E6 [9]): > 10 µM
relative viability EC50 (Calu-3 [10]): > 10 µM
relative viability EC50 (Caco-2 [11]): > 10 µM
relative viability EC50 (U2OS [12]): > 10 µM

Cc1cn([C@@H]2C[C@@H](O)[C@H](CO)O2)c(=O)[nH]c1=O [telbivudine]
cell viability (Vero E6 [1]; 1 nM): 98.8%
cell viability (Vero E6 [1]; 10 nM): 97.6%
cell viability (Vero E6 [1]; 100 nM): 92.3%
cell viability (Vero E6 [1]; 1000 nM): 85%
cell viability (Vero E6 [1]; 10000 nM): 99.3%
cell viability (Calu-3 [2]; 1 nM): 118%
cell viability (Calu-3 [2]; 10 nM): 92.2%
cell viability (Calu-3 [2]; 100 nM): 105%
cell viability (Calu-3 [2]; 1000 nM): 107%
cell viability (Calu-3 [2]; 10000 nM): 114%
cell viability (Caco-2 [3]; 1 nM): 92.6%
cell viability (Caco-2 [3]; 10 nM): 108%
cell viability (Caco-2 [3]; 100 nM): 99.8%
cell viability (Caco-2 [3]; 1000 nM): 106%
cell viability (Caco-2 [3]; 10000 nM): 116%
cell viability (U2OS [4]; 1 nM): 97.8%
cell viability (U2OS [4]; 10 nM): 103%
cell viability (U2OS [4]; 100 nM): 96.8%
cell viability (U2OS [4]; 1000 nM): 99.1%
cell viability (U2OS [4]; 10000 nM): 105%
drug sensitivity score (Vero E6 [5]): 0
drug sensitivity score (Calu-3 [6]): 0
drug sensitivity score (Caco-2 [7]): 0
drug sensitivity score (U2OS [8]): 0
relative viability EC50 (Vero E6 [9]): > 10 µM
relative viability EC50 (Calu-3 [10]): > 10 µM
relative viability EC50 (Caco-2 [11]): > 10 µM
relative viability EC50 (U2OS [12]): > 10 µM

CS(=O)(=O)c1ccc([C@@H](O)[C@@H](CO)NC(=O)C(Cl)Cl)cc1 [thiamphenicol]
cell viability (Vero E6 [1]; 1 nM): 95.8%
cell viability (Vero E6 [1]; 10 nM): 99.3%
cell viability (Vero E6 [1]; 100 nM): 92.3%
cell viability (Vero E6 [1]; 1000 nM): 96.8%
cell viability (Vero E6 [1]; 10000 nM): 98.1%
cell viability (Calu-3 [2]; 1 nM): 106%
cell viability (Calu-3 [2]; 10 nM): 94.5%
cell viability (Calu-3 [2]; 100 nM): 102%
cell viability (Calu-3 [2]; 1000 nM): 89.7%
cell viability (Calu-3 [2]; 10000 nM): 97.8%
cell viability (HepG2 [13]; 1 nM): 101%
cell viability (HepG2 [13]; 10 nM): 110%
cell viability (HepG2 [13]; 100 nM): 93.4%
cell viability (HepG2 [13]; 1000 nM): 101%
cell viability (HepG2 [13]; 10000 nM): 67.3%
cell viability (Caco-2 [3]; 1 nM): 99.7%
cell viability (Caco-2 [3]; 10 nM): 89.8%
cell viability (Caco-2 [3]; 100 nM): 91.7%
cell viability (Caco-2 [3]; 1000 nM): 93.4%
cell viability (Caco-2 [3]; 10000 nM): 94.4%
cell viability (U2OS [4]; 1 nM): 99.5%
cell viability (U2OS [4]; 10 nM): 97.5%
cell viability (U2OS [4]; 100 nM): 105%
cell viability (U2OS [4]; 1000 nM): 96.6%
cell viability (U2OS [4]; 10000 nM): 99%
drug sensitivity score (Vero E6 [5]): 0
drug sensitivity score (Calu-3 [6]): 0
drug sensitivity score (HepG2 [14]): 1.4
drug sensitivity score (Caco-2 [7]): 0
drug sensitivity score (U2OS [8]): 0
relative viability EC50 (Vero E6 [9]): > 10 µM
relative viability EC50 (Calu-3 [10]): > 10 µM
relative viability EC50 (Caco-2 [11]): > 10 µM
relative viability EC50 (U2OS [12]): > 10 µM
